Laboratory results published in ChEMBL document CHEMBL2203044, “Discovery of di-indolinone as a novel scaffold for protein tyrosine phosphatase 1B inhibitors” (Bioorg Med Chem Lett, 2012).

Experiments:
[1] = target: T1, Tyrosine-protein phosphatase non-receptor type 1 (Homo sapiens, UniProt P18031); assay: Inhibition of recombinant PTP1B using para-nitrophenylphosphate as substrate by high throughput screening assay
T1 sequence (P18031 whole entry): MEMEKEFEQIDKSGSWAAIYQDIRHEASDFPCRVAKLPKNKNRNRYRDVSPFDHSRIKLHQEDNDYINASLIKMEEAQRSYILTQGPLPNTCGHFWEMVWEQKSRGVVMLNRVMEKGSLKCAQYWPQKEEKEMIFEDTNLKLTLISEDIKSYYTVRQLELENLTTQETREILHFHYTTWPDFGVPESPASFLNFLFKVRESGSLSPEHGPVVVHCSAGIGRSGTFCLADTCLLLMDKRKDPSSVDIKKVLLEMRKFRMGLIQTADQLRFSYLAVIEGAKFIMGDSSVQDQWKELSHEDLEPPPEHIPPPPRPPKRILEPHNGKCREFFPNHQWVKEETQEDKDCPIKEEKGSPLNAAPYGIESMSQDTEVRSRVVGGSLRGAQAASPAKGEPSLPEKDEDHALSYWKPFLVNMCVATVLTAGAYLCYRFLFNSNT

[2] = target: T2, Tyrosine-protein phosphatase non-receptor type 1 (Homo sapiens) (UniProt P18031); assay: Inhibition of recombinant PTP1B using para-nitrophenylphosphate as substrate at 20 ug/mL by high throughput screening assay
T2 sequence (whole entry): T1 sequence (P18031 whole entry)

[3] = target: Tyrosine-protein phosphatase non-receptor type 6 (Homo sapiens, UniProt P29350); assay: Inhibition of SHP-1
Sequence of Tyrosine-protein phosphatase non-receptor type 6 (P29350 whole entry): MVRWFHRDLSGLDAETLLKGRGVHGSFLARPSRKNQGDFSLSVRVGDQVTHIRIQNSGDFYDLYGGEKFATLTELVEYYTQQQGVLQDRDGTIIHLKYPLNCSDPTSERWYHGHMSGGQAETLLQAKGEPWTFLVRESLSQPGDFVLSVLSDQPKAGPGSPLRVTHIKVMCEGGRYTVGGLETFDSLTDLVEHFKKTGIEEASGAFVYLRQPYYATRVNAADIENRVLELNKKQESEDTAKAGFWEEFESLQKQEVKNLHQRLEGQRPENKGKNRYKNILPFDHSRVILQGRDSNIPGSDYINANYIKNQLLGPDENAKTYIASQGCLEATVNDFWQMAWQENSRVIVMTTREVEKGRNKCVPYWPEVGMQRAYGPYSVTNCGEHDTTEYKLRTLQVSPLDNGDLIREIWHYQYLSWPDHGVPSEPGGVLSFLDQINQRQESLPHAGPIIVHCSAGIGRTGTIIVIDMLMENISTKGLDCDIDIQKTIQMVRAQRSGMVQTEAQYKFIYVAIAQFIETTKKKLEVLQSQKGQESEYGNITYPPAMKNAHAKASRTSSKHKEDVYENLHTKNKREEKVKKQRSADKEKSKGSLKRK

[4] = target: T3, Tyrosine-protein phosphatase non-receptor type 2 (Homo sapiens, UniProt P17706); assay: Inhibition of TCPTP
T3 sequence (P17706 whole entry): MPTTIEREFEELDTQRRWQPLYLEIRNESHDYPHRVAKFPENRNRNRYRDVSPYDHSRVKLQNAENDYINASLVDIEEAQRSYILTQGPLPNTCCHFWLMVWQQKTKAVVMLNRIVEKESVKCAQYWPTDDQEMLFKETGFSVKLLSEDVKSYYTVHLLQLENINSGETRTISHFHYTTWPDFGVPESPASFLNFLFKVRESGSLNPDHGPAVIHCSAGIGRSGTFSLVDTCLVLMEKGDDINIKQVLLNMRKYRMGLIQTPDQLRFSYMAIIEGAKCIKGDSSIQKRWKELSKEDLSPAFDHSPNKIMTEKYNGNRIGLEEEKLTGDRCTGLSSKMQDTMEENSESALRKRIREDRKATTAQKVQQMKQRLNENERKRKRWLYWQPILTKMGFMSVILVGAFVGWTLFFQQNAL

[5] = target: Receptor-type tyrosine-protein phosphatase F (Homo sapiens, UniProt P10586); assay: Inhibition of LAR
Sequence of Receptor-type tyrosine-protein phosphatase F (P10586 whole entry): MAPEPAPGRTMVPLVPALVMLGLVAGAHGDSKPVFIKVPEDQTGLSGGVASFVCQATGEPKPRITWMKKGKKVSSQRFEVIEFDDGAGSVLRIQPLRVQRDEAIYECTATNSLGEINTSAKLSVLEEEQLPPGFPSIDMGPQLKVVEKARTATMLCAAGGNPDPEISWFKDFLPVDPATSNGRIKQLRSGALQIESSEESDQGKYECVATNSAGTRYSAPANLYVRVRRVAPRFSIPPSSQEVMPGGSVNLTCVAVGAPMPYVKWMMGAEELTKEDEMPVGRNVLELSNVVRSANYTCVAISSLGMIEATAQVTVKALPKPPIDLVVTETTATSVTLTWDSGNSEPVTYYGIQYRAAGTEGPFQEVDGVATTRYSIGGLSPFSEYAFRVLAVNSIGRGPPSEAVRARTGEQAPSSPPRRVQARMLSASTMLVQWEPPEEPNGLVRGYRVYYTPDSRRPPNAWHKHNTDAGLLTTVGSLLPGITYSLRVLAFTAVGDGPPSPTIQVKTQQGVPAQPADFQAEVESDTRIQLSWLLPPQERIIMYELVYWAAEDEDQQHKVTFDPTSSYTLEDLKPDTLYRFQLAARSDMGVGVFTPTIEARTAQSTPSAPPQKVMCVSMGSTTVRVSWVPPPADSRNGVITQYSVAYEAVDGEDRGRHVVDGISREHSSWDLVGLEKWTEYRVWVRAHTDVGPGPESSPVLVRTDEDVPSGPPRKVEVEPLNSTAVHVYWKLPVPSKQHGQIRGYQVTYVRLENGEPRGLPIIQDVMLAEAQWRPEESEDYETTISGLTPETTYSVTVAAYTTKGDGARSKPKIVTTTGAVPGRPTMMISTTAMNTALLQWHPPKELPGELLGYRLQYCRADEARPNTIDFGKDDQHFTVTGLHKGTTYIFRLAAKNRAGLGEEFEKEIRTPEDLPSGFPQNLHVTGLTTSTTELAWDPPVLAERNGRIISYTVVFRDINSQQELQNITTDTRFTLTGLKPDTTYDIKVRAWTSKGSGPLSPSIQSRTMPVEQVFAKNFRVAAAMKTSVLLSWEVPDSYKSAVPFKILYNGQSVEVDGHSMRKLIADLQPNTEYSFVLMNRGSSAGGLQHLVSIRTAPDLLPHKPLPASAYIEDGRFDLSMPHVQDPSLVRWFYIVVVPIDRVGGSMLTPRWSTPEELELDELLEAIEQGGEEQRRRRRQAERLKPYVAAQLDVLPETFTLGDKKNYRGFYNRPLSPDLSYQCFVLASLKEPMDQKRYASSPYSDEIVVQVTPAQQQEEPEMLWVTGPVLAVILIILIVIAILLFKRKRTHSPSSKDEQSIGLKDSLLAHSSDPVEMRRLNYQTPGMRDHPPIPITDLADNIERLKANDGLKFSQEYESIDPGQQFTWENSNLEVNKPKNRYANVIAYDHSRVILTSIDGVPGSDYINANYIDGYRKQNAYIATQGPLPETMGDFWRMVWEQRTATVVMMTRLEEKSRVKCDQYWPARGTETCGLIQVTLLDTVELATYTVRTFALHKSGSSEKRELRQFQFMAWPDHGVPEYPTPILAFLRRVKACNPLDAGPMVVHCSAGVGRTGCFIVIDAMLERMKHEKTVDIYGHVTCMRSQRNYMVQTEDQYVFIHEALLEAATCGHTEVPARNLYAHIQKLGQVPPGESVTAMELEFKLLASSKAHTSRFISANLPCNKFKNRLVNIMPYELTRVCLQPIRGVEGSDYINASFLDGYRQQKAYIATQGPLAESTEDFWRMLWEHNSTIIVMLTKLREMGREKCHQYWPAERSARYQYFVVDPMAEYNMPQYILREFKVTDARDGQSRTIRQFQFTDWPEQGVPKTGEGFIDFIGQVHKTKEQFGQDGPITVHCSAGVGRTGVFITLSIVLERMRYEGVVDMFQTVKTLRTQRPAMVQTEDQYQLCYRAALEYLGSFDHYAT

Row | IC50 [1] [µM] | Compound | other results
1 | 5.23 | Cc1ccc2c(c1)C(=O)C(=O)N2Cc1ccc(/C=C2/C(=O)Nc3ccc(Br)cc32)o1 | –
2 | > 60 | Cc1ccc2c(c1)C(=O)C(=O)N2Cc1ccc(C=O)o1 | –
3 | 4.59 | O=C1Nc2ccccc2/C1=C\c1ccc(CN2C(=O)C(=O)c3cc(Cl)ccc32)o1 | –
4 | – | COC(=O)[C@@H]1CCCCN1Cc1ccc(/C=C2/C(=O)N(Cc3ccc(C=O)o3)c3ccc(F)cc32)o1 | inhibition [2]: 55%
5 | 4.41 | O=C1Nc2ccc(Cl)cc2/C1=C\c1ccc(CN2C(=O)C(=O)c3ccccc32)o1 | –
6 | 9.82 | Cc1ccc2c(c1)/C(=C\c1ccc(CN3C(=O)C(=O)c4ccccc43)o1)C(=O)N2 | –
7 | 7.63 | O=C1Nc2ccccc2/C1=C\c1ccc(CN2C(=O)C(=O)c3ccccc32)o1 | –
8 | 5.7 | Cc1ccc2c(c1)C(=O)C(=O)N2Cc1ccc(/C=C2/C(=O)Nc3ccc(C)cc32)o1 | –
9 | – | COC(=O)[C@@H]1CCCCN1Cc1ccc(/C=C2/C(=O)N(Cc3ccc(/C=C4/C(=O)Nc5ccccc54)o3)c3ccc(F)cc32)o1 | inhibition [2]: 75%
10 | > 60 | O=Cc1ccc(CN2C(=O)C(=O)c3cc(Cl)ccc32)o1 | –
11 | 3.46 | Cc1ccc2c(c1)C(=O)C(=O)N2Cc1ccc(/C=C2/C(=O)Nc3ccc(Cl)cc32)o1 | –
12 | 5.35 | O=C1Nc2ccc([N+](=O)[O-])cc2/C1=C\c1ccc(CN2C(=O)C(=O)c3ccccc32)o1 | –
13 | 6.71 | Cc1ccc2c(c1)C(=O)C(=O)N2Cc1ccc(/C=C2/C(=O)Nc3ccccc32)o1 | –
14 | – | COC(=O)[C@@H]1CCCCN1Cc1ccc(/C=C2/C(=O)Nc3ccc(F)cc32)o1 | inhibition [2]: 14%
15 | 2.8 | O=C1Nc2ccc(Br)cc2/C1=C\c1ccc(CN2C(=O)C(=O)c3ccccc32)o1 | IC50 [3]: > 100 µM; IC50 [4]: 11.5 µM; IC50 [5]: > 100 µM
16 | 2.3 | O=C1Nc2ccc(Cl)cc2/C1=C\c1ccc(CN2C(=O)C(=O)c3cc(Cl)ccc32)o1 | IC50 [3]: > 100 µM; IC50 [4]: 18.8 µM; IC50 [5]: > 100 µM
17 | 3.37 | Cc1ccc2c(c1)/C(=C\c1ccc(CN3C(=O)C(=O)c4cc(Cl)ccc43)o1)C(=O)N2 | –
18 | > 60 | O=Cc1ccc(CN2C(=O)C(=O)c3ccccc32)o1 | –
